Data from US11440880B2, “Thalidomide analogs and methods of use” (The USA, as represented by the Secretary, Department of …, priority 2015, dated 2022).

Experiments:
WT zebrafish embryos = experiment: WT zebrafish embryo development / teratogenicity; type: in vivo, zebrafish (Danio rerio); settings: in words; at concentrations active in fli1:EGFP or mpo:GFP assays
From the text: To determine the effects of the candidate compounds on embryonic development, two in vivo model systems (developing zebrafish and chicken embryos) were utilized.
Malformations in the development of the zebrafish embryo were noted, including inhibition of eye, otic vesicle and fin development (FIGS. 7A-7F). […] Embryos were screened at concentrations previously determined, in this study, to be anti-angiogenic or anti-inflammatory in the fli1:EGFP and mpo:GFP assays respectively.
Concentrations used in the WT zebrafish and chicken embryo assays to assess for teratogenesis, were equal to or higher than those utilized in the fil1:EGFP and mpo:GFP zebrafish assays

[1] = tested on: rat aortic rings (microvessel outgrowth); experiment: Rat aortic ring assay of angiogenesis; type: cell-based, Sprague Dawley rats; settings: 50 μM, 5 days
Procedure: Matrigel® matrix (BD Biosciences) was defrosted overnight on ice. The wells of a 24 well plate were coated with 300 μL of the gel using frozen pipette tips. The gel was left to set at room temperature. When required, six week old male Sprague Dawley rats were euthanized by CO2 and decapitation. The blood was drained from the tissue and the descending aorta dissected. The aorta was cleaned in EBM media, the over lying fascia removed, and the tissue was sliced into 1-mm sections using a sterile scalpel and tweezers. The sections were rinsed in clean EBM then placed onto the coagulated gel. Another 300 μL of Matrigel® matrix was pipetted onto the ring and left to set for 30 minutes. EGM™-II endothelial growth medium (500 μL) was added to each well. The rings were incubated overnight at 37° C. The next day the media was removed and replaced with EBM containing compounds (50 μM) or media. TNP-470 ((Chloracetyl) carbamic acid (3R,4S,5S,6R)-5-methoxy-4-[(2R,3R)-2-methyl-3-(3-methyl-2-butenyl)oxiranyl]-1-oxaspiro[2.5]oct-6-yl ester) was used as a positive control. The rings were incubated in the compounds for 5 days. On day 5 the rings were imaged using an EVOS™ scope. The vessel outgrowth was quantified by binary conversion in Image J open-source image processing software and average outgrowth calculated (FIG. 9).

SMILES	effect on development / mortality of zebrafish embryos (WT zebrafish embryos)	microvessel outgrowth [1]
Nc1cccc2c1CN(C13CC4CC(CC(C4)C1)C3)C2=O [Compound 77, 2,3-Dihydro-4-amino-2-(tricyclo[3.3.1.1^3,7]dec-1-yl)-1H-isoindol-1-one]	no apparent effect on the development of the zebrafish embryo	
O=C1c2ccccc2CN1C12CC3CC(CC(O)(C3)C1)C2 [Compound 86, 2,3-Dihydro-2-(tricyclo[3.3.1.1^3,7]dec-1-hydroxy-3-yl)-1H-isoindol-1-one]		17.3%
